{"source": "patent US4350685A", "about": "“Antiallergic imidodisulfamides” (SmithKline Corporation, priority 1981, dated 1982)", "tested_on": "SRS-A induced contraction of guinea pig ileum", "assay": "inhibition of SRS-A induced contraction of guinea pig ileum (SRS-A antagonist activity)", "format": "cell-based", "conditions": "Cavia porcellus, 0.25 h, partially purified SRS-A from guinea pig lung, 40 μg/ml, 15 minutes incubation, read-out: percent antagonism of SRS-A; for inhibition at 5 µM: 5×10^-6 M", "method": "The SRS-A antagonist activity of the compounds of this invention is measured by the ability of the active medicament to inhibit SRS-A induced contraction of guinea pig ileum. In this test system, sections of ileum are resected from guinea pigs and placed in 5 ml. tissue baths containing a modified Tyrode's solution. One end of the tissue is fixed to a glass tissue holder, the other is connected to a force-displacement transducer and the tissue is placed under a tension of 500 mg. Isometric tissue contractions are recorded on a six channel polygraph. Baths are constantly aerated with 95% O2 -5% CO2. After a 20 minute stabilization period a concentration of the appropriate agonist which provides a contraction height of 60-80% of the maximum obtainable to that agonist (as determined from full sequential concentration-response curves in separate experiments) is added to the tissue bath and the response recorded. The procedure is repeated until reproducible responses are obtained. For most agonists, two applications in rapid succession, followed 15 minutes later by a third, is sufficient to establish reproducibility. Experimental tissues are incubated with the selected concentration of the test compounds for 15 minutes. Experimental and control tissues are subjected to 5 bath changes during the incubation interval. Changes in bath fluid during the incubation period are helpful in insuring the reproducibility of tissue responses to the agonist. The same concentration of the agonist is reapplied in the presence of the test compound and the response registered and compared with controls. Percent inhibition produced by the test compound is calculated by substracting the mean percentage change in control tissue from the mean percentage change in tissues exposed to the test compound. Additional compounds are then evaluated as long as the tissue remains reproducibly responsive to the agonist. Six tissues obtained from 6 animals are used simultaneously--3 controls and 3 experimental. […]", "data": [{"smiles": "O=S(=O)(N[C@@H]1CCCC[C@@H]1c1ccccc1)NS(=O)(=O)N[C@@H]1CCCC[C@@H]1c1ccccc1", "note": "(relative stereo) [Compound 3, 1,5-di[cis-2-phenylcyclohexyl]imidodisulfamide]", "values": [{"measurement": "inhibition at 50 µM", "setting": "5×10^-5 M", "result": 86, "unit": "%"}]}, {"smiles": "O=S(=O)(N[C@@H]1C[C@H]1c1ccc(Cl)c(Cl)c1)NS(=O)(=O)N[C@@H]1C[C@H]1c1ccc(Cl)c(Cl)c1", "note": "(relative stereo) [Compound 2, 1,5-di[trans-2-(3,4-dichlorophenyl)cyclopropyl]imidodisulfamide]", "values": [{"measurement": "inhibition at 5 µM", "result": 60, "unit": "%"}]}, {"smiles": "O=S(=O)(N[C@@H]1C[C@H]1c1ccccc1)NS(=O)(=O)N[C@@H]1C[C@H]1c1ccccc1", "note": "(relative stereo) [Compound 1, 1,5-Di[TRANS-2-PHENYLCYCLOPROPYL]IMIDODISULFAMIDE]", "values": [{"measurement": "inhibition at 5 µM", "result": 17, "unit": "%"}]}]}
